Measured values published in PubChem BioAssay AID1963964 (Molecular Pharmacology Branch, DTP, NCI, 2024).
pIC50: −log10 of the molar value.

System: 997726-040-R-J2-PDC tumor spheroids, viability
Assay: Anticancer human tumor 997726-040-R-J2-PDC patient-derived squamous cell lung carcinoma cell line growth inhibition [PI3K]
Conditions: spheroids with HUVEC and MSC; for pIC50: curve of first compound; for viability, T/C: stronger effect = lower value
From the text: Combinatorial screen of targeted agents with the PI3K inhibitors inavolisib, alpelisib, duvelisib, and copanlisib in multi-cell type tumor spheroids
A high-throughput screen of multi-cell type tumor spheroids was designed to identify active combinations of targeted small molecules and PI3K pathway inhibitors. Complex spheroids include a stromal component modeled by human endothelial cells (HUVEC) and fibroblasts modeled by human mesenchymal stem cells (MSCs). The concentration ranges selected for each drug and investigational agent were based upon clinically achievable concentrations if the clinical Cmax of the agent was known.
Compounds. The drugs and investigational agents: inavolisib (NSC800729), alpelisib (NSC765974), duvelisib (NSC772469), copanlisib (NSC816437), ipatasertib (NSC767898), afuresertib (NSC778305), talazoparib (NSC767125), sapanisertib (NSC764658), selumetinib (NSC741078), tovorafenib (DAY101, NSC766906), vemurafenib (NSC761431), ravoxertinib (NSC781343), sotorasib (NSC818433), MRTX1133 (NSC 836407), abemaciclib (NSC 768073), palbociclib (NSC758247), venetoclax (NSC 766270), SY5609 (NSC837396), enzalutamide (NSC755605), and darolutamide (NSC825331), were obtained from the National Cancer Institute (NCI) Developmental Therapeutics Program Chemical Repository. The FDA-approved anticancer drug set is available from the NCI Developmental Therapeutics Program. […] The stock solutions were prepared in dimethyl sulfoxide (DMSO, Sigma-Aldrich, St. Louis, MO, cat. D2650) at 800-fold the tested concentration and stored at -70 degrees C prior to their use. All drugs and investigational agents were tested over a range starting from a high concentration at or near the clinical Cmax and decreasing in half-log increments. If the clinical Cmax for an agent had not been determined, the highest concentration tested was 10 microM.
Cell Culture. All cells were maintained in an incubator at 37 degrees C and 5% CO2 with 95% humidity. The PDC lines were cultured according to standard operating procedures established by the NCI PDMR (https://pdmr.cancer.gov/sops/default.htm). All PDCs were thawed and cultured in Matrigel-coated flasks prepared with a working solution of 1X Ham's F-12 nutrient mix, without supplementation (Invitrogen, Waltham, MA, cat. 11765054), 100 U/mL penicillin-streptomycin (Invitrogen, cat. 15140122), and 2.5% Matrigel (Corning Inc., Corning, NY, cat. 354248) for the first three passages. The 354836-022-R-J1-PDC, 475296-252-R-J1-PDC, and 997726-040-R-J2-PDC lines were cultured in 6A media, which includes advanced DMEM/F-12 (Thermo Fisher Scientific, cat. 12634028), 10 mM HEPES (Thermo Fisher Scientific, cat. 15630080), 1X GlutaMAX supplement (Thermo Fisher Scientific, cat. 35050061), 0.1 mg/mL primocin (InvivoGen, San Diego, CA, cat. ant-pm-2), 10% defined fetal bovine serum, heat inactivated (HyClone Laboratories Inc., Logan, UT, cat. SH30070.03HI), 50% L-WRN conditioned media (ATCC, cat. CRL-3276), 1.25 mM N-Acetyl-L-cysteine (Sigma-Aldrich, cat. A9165), 10 mM nicotinamide (Sigma-Aldrich, cat. N0636), 1X B-27 supplement (Thermo Fisher Scientific, cat. 17504044), 1X N-2 supplement (Thermo Fisher Scientific, cat. 17502048), and 10 microM Y-27632 dihydrochloride (Tocris Bioscience, Bristol, United Kingdom, cat. 1254). The 624824-186-R-J2-PDC line was cultured in 6C/Colon 1B media, which includes all 6A media components plus 50 ng/mL human EGF recombinant protein (Thermo Fisher Scientific, cat. PHG0311). […]

[1] = second compound 0.00316 µM, first compound 0.0316 µM
[2] = second compound 0.00316 µM, first compound 0.1 µM
[3] = second compound 0.01 µM, first compound 0.0316 µM
[4] = second compound 0.01 µM, first compound 0.1 µM
[5] = second compound 0.0316 µM, first compound 0.0316 µM
[6] = second compound 0.0316 µM, first compound 0.1 µM
[7] = second compound 0.1 µM, first compound 0.0316 µM
[8] = second compound 0.1 µM, first compound 0.1 µM
[9] = second compound 0.316 µM, first compound 0.0316 µM
[10] = second compound 0.316 µM, first compound 0.1 µM
[11] = second compound 1 µM, first compound 0.0316 µM
[12] = second compound 1 µM, first compound 0.1 µM
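Further: spheroids exposed to compounds for seven days before readout.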

Question: With `CC(=O)c1c(C)c2cnc(Nc3ccc(N4CCNCC4)cn3)nc2n(C2CCCC2)c1=O` + CC(Nc1ccc2c(c1)OCCn1cc(N3C(=O)OCC3C(F)F)nc1-2)C(N)=O as the compound, how does the pIC50 (second compound 0.00316 µM) read?
Answer: < 7.00

Question: What about the pIC50 (second compound 0.01 µM) of the same compound?
Answer: < 7.00

Question: What about the pIC50 (second compound 0.0316 µM) of the same compound?
Answer: 7.35

Question: And the pIC50 (second compound 0.1 µM)?
Answer: > 9.50

Question: And the pIC50 (second compound 0.316 µM)?
Answer: > 9.50

Question: What about the pIC50 (second compound 1 µM) of the same compound?
Answer: > 9.50

Question: What about the viability, T/C (second compound 0.00316 µM, first compound 0.000316 µM) of the same compound?
Answer: 94.9%

Question: What about the viability, T/C (second compound 0.00316 µM, first compound 0.001 µM) of the same compound?
Answer: 84.1%

Question: And the viability, T/C (second compound 0.00316 µM, first compound 0.00316 µM)?
Answer: 83.1%

Question: What about the viability, T/C (second compound 0.00316 µM, first compound 0.01 µM) of the same compound?
Answer: 81.9%

Question: What about the viability, T/C [1] of the same compound?
Answer: 84.9%

Question: And the viability, T/C [2]?
Answer: 55.8%

Question: What about the viability, T/C (second compound 0.01 µM, first compound 0.000316 µM) of the same compound?
Answer: 84.7%

Question: What about the viability, T/C (second compound 0.01 µM, first compound 0.001 µM) of the same compound?
Answer: 80.7%

Question: What about the viability, T/C (second compound 0.01 µM, first compound 0.00316 µM) of the same compound?
Answer: 74.1%

Question: What about the viability, T/C (second compound 0.01 µM, first compound 0.01 µM) of the same compound?
Answer: 76.4%

Question: And the viability, T/C [3]?
Answer: 65.8%

Question: What about the viability, T/C [4] of the same compound?
Answer: 53.9%

Question: And the viability, T/C (second compound 0.0316 µM, first compound 0.000316 µM)?
Answer: 62%

Question: What about the viability, T/C (second compound 0.0316 µM, first compound 0.001 µM) of the same compound?
Answer: 62.1%

Question: And the viability, T/C (second compound 0.0316 µM, first compound 0.00316 µM)?
Answer: 63.9%

Question: What about the viability, T/C (second compound 0.0316 µM, first compound 0.01 µM) of the same compound?
Answer: 53.9%

Question: What about the viability, T/C [5] of the same compound?
Answer: 52.5%

Question: What about the viability, T/C [6] of the same compound?
Answer: 45%

Question: What about the viability, T/C (second compound 0.1 µM, first compound 0.000316 µM) of the same compound?
Answer: 43.5%

Question: And the viability, T/C (second compound 0.1 µM, first compound 0.001 µM)?
Answer: 45.4%

Question: And the viability, T/C (second compound 0.1 µM, first compound 0.00316 µM)?
Answer: 46.5%

Question: What about the viability, T/C (second compound 0.1 µM, first compound 0.01 µM) of the same compound?
Answer: 48.9%

Question: And the viability, T/C [7]?
Answer: 40.5%

Question: And the viability, T/C [8]?
Answer: 29.5%

Question: And the viability, T/C (second compound 0.316 µM, first compound 0.000316 µM)?
Answer: 38.4%

Question: And the viability, T/C (second compound 0.316 µM, first compound 0.001 µM)?
Answer: 32.7%

Question: And the viability, T/C (second compound 0.316 µM, first compound 0.00316 µM)?
Answer: 39.3%

Question: And the viability, T/C (second compound 0.316 µM, first compound 0.01 µM)?
Answer: 30.1%

Question: What about the viability, T/C [9] of the same compound?
Answer: 24.4%

Question: And the viability, T/C [10]?
Answer: 22.9%

Question: What about the viability, T/C (second compound 1 µM, first compound 0.000316 µM) of the same compound?
Answer: 26.3%

Question: What about the viability, T/C (second compound 1 µM, first compound 0.001 µM) of the same compound?
Answer: 33.2%

Question: And the viability, T/C (second compound 1 µM, first compound 0.00316 µM)?
Answer: 27.5%

Question: What about the viability, T/C (second compound 1 µM, first compound 0.01 µM) of the same compound?
Answer: 28.1%

Question: What about the viability, T/C [11] of the same compound?
Answer: 22.2%

Question: And the viability, T/C [12]?
Answer: 15.3%

Question: What does the source list for `CNC(=O)c1ccc(N2C(=S)N(c3ccc(C#N)c(C(F)(F)F)c3)C(=O)C2(C)C)cc1F` + CC(Nc1ccc2c(c1)OCCn1cc(N3C(=O)OCC3C(F)F)nc1-2)C(N)=O?
Answer: pIC50 (second compound 0.00316 µM): < 5.00; pIC50 (second compound 0.01 µM): < 5.00; pIC50 (second compound 0.0316 µM): < 5.00; pIC50 (second compound 0.1 µM): > 7.50; pIC50 (second compound 0.316 µM): > 7.50; pIC50 (second compound 1 µM): > 7.50; viability, T/C [1]: 82.6%; viability, T/C [2]: 86.7%; viability, T/C (second compound 0.00316 µM, first compound 0.316 µM): 89%; viability, T/C (second compound 0.00316 µM, first compound 1 µM): 88.2%; viability, T/C (second compound 0.00316 µM, first compound 3.16 µM): 94.8%; viability, T/C (second compound 0.00316 µM, first compound 10 µM): 83.5%; viability, T/C [3]: 74.9%; viability, T/C [4]: 71.5%; viability, T/C (second compound 0.01 µM, first compound 0.316 µM): 79.6%; viability, T/C (second compound 0.01 µM, first compound 1 µM): 72.8%; viability, T/C (second compound 0.01 µM, first compound 3.16 µM): 78.8%; viability, T/C (second compound 0.01 µM, first compound 10 µM): 72.3%; viability, T/C [5]: 59.5%; viability, T/C [6]: 68.3%; viability, T/C (second compound 0.0316 µM, first compound 0.316 µM): 61%; viability, T/C (second compound 0.0316 µM, first compound 1 µM): 61.4%; viability, T/C (second compound 0.0316 µM, first compound 3.16 µM): 67.2%; viability, T/C (second compound 0.0316 µM, first compound 10 µM): 57.4%; viability, T/C [7]: 50.2%; viability, T/C [8]: 45.5%; viability, T/C (second compound 0.1 µM, first compound 0.316 µM): 45.1%; viability, T/C (second compound 0.1 µM, first compound 1 µM): 44.3%; viability, T/C (second compound 0.1 µM, first compound 3.16 µM): 42.4%; viability, T/C (second compound 0.1 µM, first compound 10 µM): 40.3%; viability, T/C [9]: 34.6%; viability, T/C [10]: 32.5%; viability, T/C (second compound 0.316 µM, first compound 0.316 µM): 31.8%; viability, T/C (second compound 0.316 µM, first compound 1 µM): 33%; viability, T/C (second compound 0.316 µM, first compound 3.16 µM): 28.9%; viability, T/C (second compound 0.316 µM, first compound 10 µM): 28.6%; viability, T/C [11]: 34.3%; viability, T/C [12]: 27.8%; viability, T/C (second compound 1 µM, first compound 0.316 µM): 26.7%; viability, T/C (second compound 1 µM, first compound 1 µM): 29.6%; viability, T/C (second compound 1 µM, first compound 3.16 µM): 21.4%; viability, T/C (second compound 1 µM, first compound 10 µM): 24.2%
